Reference: ChEMBL document CHEMBL3603814, “Heterocyclic chalcone activators of nuclear factor (erythroid-derived 2)-like 2 (Nrf2) with improved in vivo efficacy” (Bioorg Med Chem, 2015)
Values belong to the molecule of their own block, whether it stands above or below them. The source made the active and inactive calls. The calls are words filed in the database; no cut-off is given here.

Columns and labels:
[1] = target: T1, Nuclear factor erythroid 2-related factor 2 (Homo sapiens) (UniProt Q16236); assay: Activation of Nrf2 in human BEAS2B cells assessed as increase in HO1 gene expression at 5 uM incubated for 6 hrs by qPCR method; type: cell-based
T1 sequence (whole entry): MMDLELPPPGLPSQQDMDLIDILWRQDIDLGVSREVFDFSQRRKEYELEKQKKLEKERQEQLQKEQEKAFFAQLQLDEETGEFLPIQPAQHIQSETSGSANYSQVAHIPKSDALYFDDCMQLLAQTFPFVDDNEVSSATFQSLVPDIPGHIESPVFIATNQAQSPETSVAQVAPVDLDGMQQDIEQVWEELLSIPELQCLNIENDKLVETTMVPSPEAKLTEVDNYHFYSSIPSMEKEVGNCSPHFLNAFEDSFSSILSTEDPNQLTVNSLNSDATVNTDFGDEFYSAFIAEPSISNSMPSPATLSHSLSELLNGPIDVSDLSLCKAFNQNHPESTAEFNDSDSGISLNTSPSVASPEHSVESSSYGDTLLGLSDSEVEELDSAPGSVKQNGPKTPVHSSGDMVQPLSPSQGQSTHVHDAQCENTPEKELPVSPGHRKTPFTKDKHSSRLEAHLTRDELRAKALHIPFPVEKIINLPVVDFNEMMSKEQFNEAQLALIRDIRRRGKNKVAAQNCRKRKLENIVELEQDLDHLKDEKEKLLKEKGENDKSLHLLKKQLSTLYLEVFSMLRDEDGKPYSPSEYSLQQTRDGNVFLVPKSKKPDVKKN

Mus musculus [2] = assay: Increase in HO-1 gene expression in mouse lung at 200 mg/kg, po measured 6 hrs post dose by qPCR method; type: functional, organism-based
Mus musculus [3] = assay: Increase in HO-1 gene expression in mouse lung at 400 mg/kg, po measured 6 hrs post dose by qPCR method; type: functional, organism-based
Mus musculus [4] = assay: Increase in HO-1 protein expression in mouse lung at 400 mg/kg, po measured 6 hrs post dose by ELISA method; type: functional, organism-based
Mus musculus [5] = assay: Increase in HO-1 protein expression in mouse lung at 200 mg/kg, po measured 6 hrs post dose by ELISA method; type: functional, organism-based
[6] = target: T1, Nuclear factor erythroid 2-related factor 2 (Homo sapiens); assay: Activation of Nrf2 in human BEAS2B cells assessed as increase in HO1 gene expression at 10 uM incubated for 6 hrs by qPCR method; type: cell-based

- Activity [1]: Active
SMILES: COc1ccncc1C(=O)/C=C/c1ccccc1C(F)(F)F

- Activity [1]: Active
SMILES: COc1cnccc1C(=O)/C=C/c1ccccc1C(F)(F)F

- Activity [1]: Active
SMILES: COc1ccccc1C(=O)/C=C/c1ncccc1C(F)(F)F
- Activity (Mus musculus [2]): Active
- Activity (Mus musculus [3]): Active
- Activity (Mus musculus [4]): Active

- Activity [1]: Active
SMILES: COc1ccccc1C(=O)/C=C/c1cnccc1C(F)(F)F

- Activity [1]: Active
SMILES: COc1ccccc1C(=O)/C=C/c1ccccc1C(F)(F)F
- Activity (Mus musculus [2]): Active
- Activity (Mus musculus [3]): Active
- Activity (Mus musculus [5]): Active
- Activity (Mus musculus [4]): Active

- Activity [1]: Active
SMILES: COc1ccccc1C(=O)/C=C/c1ccncc1C(F)(F)F

- Activity [6]: Active
SMILES: COC(=O)[C@]12CCC(C)(C)C[C@H]1[C@H]1C(=O)C=C3[C@@]4(C)C=C(C#N)C(=O)C(C)(C)[C@@H]4CC[C@@]3(C)[C@]1(C)CC2
